# Assays:
# [1] = system: 3-deoxy-D-arabino-heptulosonate 7-phosphate synthase; assay: feedback inhibition of chloroplast DAHP synthase; format: biochemical, higher plants; details: higher-plant chloroplasts
# Source text: Because L-arogenate regulates aromatic amino acid biosynthesis in the chloroplast by feedback inhibition exerted upon the initial enzyme of aromatic biosynthesis, it provides an excellent point of attack. Application of L-arogenate or an L-arogenate-type compound will cause a serious disturbance of the feedback inhibition mechanism of this crucial metabolic pathway.
# [2] = system: DAHP synthase isozymes of higher plants; assay: inhibition of DAHP synthase isozymes of higher plants; format: biochemical; details: two separately compartmented isozymes
# Source text: The early amino acid pathway circuit entails the feedback inhibition of 3-deoxy-D-arabinoheptulosonate 7-P (DAHP) synthase by chorismate. Thus, the DAHP synthase of Xanthomonas offers unique target of vulnerability in nature since an appropriate analog mimic of chorismate produces false feedback inhibition of DAHP synthase in Xanthomonas but not in the higher plant host. […] Step two of the claimed process has thus been completed.
# The DAHP synthase of xanthomonads is also sensitive to inhibition by L-tryptophan. […] Thus, analog mimics of L-tryptophan attack a second site within the basic DAHP synthase target of Xanthomonas.
# [3] = system: a variety of bacteria, including N. gonorrhoeae; assay: energy drain / PEP depletion in bacteria after EPSP synthase block; format: cell-based
# Source text: The enzymic target of N-(phosphonomethyl) glycine action is not present in mammalian systems, therefore, N-(phosphonomethyl) glycine is not toxic to the human host. Because N-(phosphonomethyl) glycine acts on an enzyme which is present in pathogenic bacteria but not in the human host, this compound could be used as an effective control agent for bacterial pathogens.
# [4] = system: cyclohexadienyl dehydrogenase; assay: substrate utilization by cyclohexadienyl dehydrogenase; format: biochemical
# Source text: (§1) Therefore, prephenyllactate is an appropriate prephenate analog for the control of phytopathogens.
# arogenate dehydrogenase = assay: substrate utilization by arogenate dehydrogenase enzymes; format: biochemical
# Source text: as §1
# [5] = system: microbial prephenate dehydrogenase; assay: substrate utilization by microbial prephenate dehydrogenase; format: biochemical
# Source text: as §1
compound,measurement,setting,value
N[C@@H](CC1(C(=O)O)C=CC(O)C=C1)C(=O)O (stereo partly drawn) [L-arogenate],feedback inhibition of the initial enzyme of aromatic biosynthesis,[1],feedback inhibitor
N[C@@H](Cc1c[nH]c2ccccc12)C(=O)O [L-tryptophan],sensitivity of higher-plant DAHP synthase isozymes to inhibition,[2],not affected
O=C(O)CNCP(=O)(O)O [N-(phosphonomethyl) glycine],drain upon intracellular supplies of PEP,"[3]; even at microgram levels, shikimate-3-phosphate accumulates",produces a drain upon intracellular supplies of PEP
same,energy drain from depletion of PEP and ATP,"[3]; variety of bacteria, including N. gonorrhoeae",severe energy drain
C=C(O[C@@H]1C=C(C(=O)O)C=C[C@H]1O)C(=O)O [chorismate],sensitivity of higher-plant DAHP synthase isozymes to inhibition,[2],neither sensitive to inhibition
"O=C(O)C(O)CC1(C(=O)O)C=CC(O)C=C1 (stereo not drawn) [prephenyllactate, β-(1-carboxyl-4-hydroxy-2,5-cyclohexadien-1-yl) lactic acid]",utilization as substrate by cyclohexadienyl dehydrogenase,[4],as a substrate quite well
same,utilization as substrate by arogenate dehydrogenase enzymes,arogenate dehydrogenase,do not use prephenyllactate as a substrate
same,utilization as substrate by microbial prephenate dehydrogenase,[5],as a substrate quite well

# — patent US5187071A, “Method for the selective control of weeds, pests, and microbes” (priority 1988, dated 1993)
